According to patent US8138171B2, “Dioxolane and dioxolanone fused indolobenzadiazepine HCV NS5B inhibitors” (Bristol-Myers Squibb Company, priority 2008, dated 2012):
Where two headings read alike, the source gives them in different places.

What was measured:
[1] = target: T1, HCV NS5B RdRp genotype 1b (Hepatitis C virus genotype 1b, UniProt P26663); assay: Modified HCV NS5B RdRp enzyme assay (preincubation protocol); format: biochemical
T1 construct: The protein was expressed with an 18 amino acid C-terminal truncation to enhance the solubility; made in house; host or cells: E. coli BL21(DE3), pET21a
T1 sequence (P26663 2420-2992): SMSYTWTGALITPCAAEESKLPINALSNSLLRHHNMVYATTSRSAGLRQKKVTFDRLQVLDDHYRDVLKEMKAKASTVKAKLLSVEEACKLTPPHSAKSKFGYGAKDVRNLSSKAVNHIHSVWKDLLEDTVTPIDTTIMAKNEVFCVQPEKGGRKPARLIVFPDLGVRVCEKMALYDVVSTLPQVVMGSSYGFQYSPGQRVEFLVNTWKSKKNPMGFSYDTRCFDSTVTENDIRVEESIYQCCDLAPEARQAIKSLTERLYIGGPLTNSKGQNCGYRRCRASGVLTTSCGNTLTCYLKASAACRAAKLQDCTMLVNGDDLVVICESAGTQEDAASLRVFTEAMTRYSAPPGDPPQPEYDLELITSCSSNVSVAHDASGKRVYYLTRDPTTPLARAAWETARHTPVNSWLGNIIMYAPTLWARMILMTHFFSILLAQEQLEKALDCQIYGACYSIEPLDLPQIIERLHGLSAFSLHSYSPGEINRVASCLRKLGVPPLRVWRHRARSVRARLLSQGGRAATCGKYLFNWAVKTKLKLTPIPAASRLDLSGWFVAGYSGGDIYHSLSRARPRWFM
Description: HCV NS5B RdRp cloning, expression, and purification. The cDNA encoding the NS5B protein of HCV, genotype 1b, was cloned into the pET21a expression vector. The protein was expressed with an 18 amino acid C-terminal truncation to enhance the solubility. The E. coli competent cell line BL21(DE3) was used for expression of the protein. Cultures were grown at 37° C. for ˜4 hours until the cultures reached an optical density of 2.0 at 600 nm. The cultures were cooled to 20° C. and induced with 1 mM IPTG. Fresh ampicillin was added to a final concentration of 50 μg/ml and the cells were grown overnight at 20° C.
Cell pellets (3 L) were lysed for purification to yield 15-24 […] of purified NS5B. The lysis buffer consisted of 20 mM Tris-HCl, pH 7.4, 500 mM NaCl, 0.5% triton X-100, 1 mM DTT, 1 mM EDTA, 20% glycerol, 0.5 mg/ml lysozyme, 10 mM MgCl2, 15 ug/ml deoxyribonuclease I, and Complete™ protease inhibitor tablets (Roche). After addition of the lysis buffer, frozen cell pellets were resuspended using a tissue homogenizer. To reduce the viscosity of the sample, aliquots of the lysate were sonicated on ice using a microtip attached to a Branson sonicator. The sonicated lysate was centrifuged at 100,000×g for 1 hr at 4° C. and filtered through a 0.2 μm filter unit (Corning).
The protein was purified using three sequential chromatography steps: Heparin sepharose CL-6B, polyU sepharose 4B, and Hitrap SP sepharose (Pharmacia). The chromatography buffers were identical to the lysis buffer but contained no lysozyme, deoxyribonuclease I, MgCl2 or protease inhibitor and the NaCl concentration of the buffer was adjusted according to the requirements for charging the protein onto the column. Each column was eluted with a NaCl gradient which varied in length from 5-50 column volumes depending on the column type. After the final chromatography step, the resulting purity of the enzyme is >90% based on SDS-PAGE analysis. The enzyme was aliquoted and stored at −80° C.
Standard HCV NS5B RdRp enzyme assay. HCV RdRp genotype 1b assays were run in a final volume of 60 μl in 96 well plates (Costar 3912). The assay buffer is composed of 20 mM Hepes, pH 7.5, 2.5 mM KCl, 2.5 mM MgCl2, 1 mM DTT, 1.6 U RNAse inhibitor (Promega N2515), 0.1 mg/ml BSA (Promega R3961), and 2% glycerol. All compounds were serially diluted (3-fold) in DMSO and diluted further in water such that the final concentration of DMSO in the assay was 2%. HCV RdRp genotype 1b enzyme was used at a final concentration of 28 nM. A polyA template was used at 6 nM, and a biotinylated oligo-dT12 primer was used at 180 nM final concentration. Template was obtained commercially (Amersham 27-4110). Biotinylated primer was prepared by Sigma Genosys. 3H-UTP was used at 0.6 μCi (0.29 μM total UTP). Reactions were initiated by the addition of enzyme, incubated at 30° C. for 60 min, and stopped by adding 25 μl of 50 mM EDTA containing SPA beads (4 μg/μl, Amersham RPNQ 0007). Plates were read on a Packard Top Count NXT after >1 hr incubation at room temperature.
Modified HCV NS5B RdRp enzyme assay. A modified enzyme assay was performed essentially as described for the standard enzyme assay except for the following: The biotinylated oligo dT12 primer was precaptured on streptavidin-coated SPA beads by mixing primer and beads in assay buffer and incubating at room temperature for one hour. Unbound primer was removed after centrifugation. The primer-bound beads were resuspended in 20 mM Hepes buffer, pH 7.5 and used in the assay at final concentrations of 20 nM primer and 0.67 μg/μl beads. Order of addition in the assay: enzyme (14 nM) was added to diluted compound followed by the addition of a mixture of template (0.2 nM), 3H-UTP (0.6 μCi, 0.29 μM), and primer-bound beads, to initiate the reaction; concentrations given are final. Reactions were allowed to proceed for 4 hours at 30° C.
IC50 values for compounds were determined using seven different. […]

HCV replicon cells = assay: HCV replicon FRET assay; format: cell-based; settings: Hepatitis C virus
Source text: FRET Assay Preparation. To perform the HCV FRET screening assay, 96-well cell culture plates were used. The FRET peptide (Anaspec, Inc.) (Taliani et al., Anal. Biochem. 1996, 240, 60-67) contains a fluorescence donor, EDANS, near one end of the peptide and an acceptor, DABCYL, near the other end. The fluorescence of the peptide is quenched by […] resonance energy transfer (RET) between the donor and the acceptor, but as the NS3 protease cleaves the peptide the products are released from RET quenching and the fluorescence of the donor becomes apparent. The assay reagent was made as follows: 5× cell Luciferase cell culture lysis reagent from Promega (#E153A) diluted to 1× with dH2O, NaCl added to 150 mM final, the FRET peptide diluted to 20 uM final from a 2 mM stock.
To prepare plates, HCV replicon cells, with or without a Renilla luciferase reporter gene, were trypsinized and placed into each well of a 96-well plate with titrated test compounds added in columns 3 through 12; columns 1 and 2 contained a control compound (HCV protease inhibitor), and the bottom row contained cells without compound. The plates were then placed in a CO2 incubator at 37° C.
Assays. Subsequent to addition of the test compounds described above (FRET Assay Preparation), at various times the plate was removed and Alamar blue solution (Trek Diagnostics, #00-100) was added per well as a measure of cellular toxicity, After reading in a Cytoflour 4000 instrument (PE Biosystems), plates were rinsed with PBS and then used for FRET assay by the addition of 30 ul of the FRET peptide assay reagent described above (FRET Assay Preparation) per well. The plate was then placed into the Cytoflour 4000 instrument which had been set to 340 excite/490 emission, automatic mode for 20 cycles and the plate read in a kinetic mode. Typically, the signal to noise using an endpoint analysis after the reads was at least three-fold. Alternatively, after Alamar blue reading, plates were rinsed with PBS, 50 ul of DMEM (high glucose) without phenol red was added and plates were then used for luciferase assay using the Promega Dual-Glo Luciferase Assay System.
Compound analysis was determined by quantification of the relative HCV replicon inhibition and the relative cytotoxicity values. To calculate cytoxicity values, the average Alamar Blue fluorescence signals from the control wells were set as 100% non-toxic. The individual signals in each of the compound test wells were then divided by the average control signal and multiplied by 100% to determine […]. To calculate the HCV replicon inhibition values, an average background value was obtained from the two wells containing the highest amount of HCV protease inhibitor at the end of the assay period. These numbers were similar to those obtained from naive Huh-7 cells.
The background numbers were then subtracted from the average signal obtained from the control wells and this number was used as 100% activity. The individual signals in each of the compound test wells were then divided by the averaged control values after background subtraction and multiplied by 100% to determine percent activity. EC50 values for a protease inhibitor titration were calculated as the concentration which caused a 50% reduction in FRET or luciferase activity. The two numbers generated for the compound plate, percent cytoxicity and percent activity were used to determine compounds of interest for further analysis.

[2] = HCV NS5B RdRp genotype 1b, preincubation protocol, read-out: IC50
[3] = HCV replicon cells, FRET assay, read-out: EC50

| Compound | IC50 [1, 2] | EC50 (HCV replicon cells; [3]) | EC50 (HCV replicon cells) | IC50 [1] |
| --- | --- | --- | --- | --- |
| COc1ccc2c(c1)[C@@H]1OC(C)(C)O[C@]1(C(=O)N(C)CCN(C)C)Cn1c-2c(C2CCCCC2)c2ccc(C(=O)NS(=O)(=O)N(C)C)cc21 (racemic) [Example 1, rac-(3aR,14bS)-10-Cyclohexyl-N^3a-(2-(dimethylamino)ethyl)-N^7-((dimethylamino)sulfonyl)-N^3a,2,2-trimethyl-13-(methyloxy)-4H-[1,3]dioxolo[4,5-d]indolo[2,1-a][2]benzazepine-3a,7(14bH)-dicarboxamide] | 170 nM | 130 nM | – | – |
| COc1ccc2c(c1)[C@@H]1OC(=O)O[C@]1(C(=O)N1C[C@@H](C)O[C@@H](C)C1)Cn1c-2c(C2CCCCC2)c2ccc(C(=O)NS(=O)(=O)N(C)C)cc21 (racemic) [Example 2, rac-(3aR,14bS)-10-Cyclohexyl-N-((dimethylamino)sulfonyl)-3a4(2R,6S)-2,6-dimethyl-4-morpholinyl)carbonyl)-13-(methyloxy)-2-oxo-3a,14b-dihydro-4H-[1,3]diaxolo[4,5-d]indolo[2,1-a][2]benzazepine-7-carboxamide] | 33 nM | 59 nM | – | – |
| COc1ccc2c(c1)[C@@H]1OC(C)(C)O[C@]1(C(=O)N1C[C@@H](C)O[C@@H](C)C1)Cn1c-2c(C2CCCCC2)c2ccc(C(=O)NS(=O)(=O)N(C)C)cc21 (racemic) [Example 3, rac-(3aR,14bS)-10-Cyclohexyl-N-((dimethylamino)sulfonyl)-3a-(((2R,6S)-2,6-dimethyl-4-morpholinyl)carbonyl)-2,2-dimethyl-13-(methyloxy)-3a,14b-dihydro-4H-[1,3]dioxolo[4,5-d]indolo[2,1-a][2]benzazepine-7-carboxamide] | 110 nM | – | 170 nM | – |
| COc1ccc2c(c1)[C@@H]1OC(=O)O[C@]1(C(=O)N1C3CCC1CN(C)C3)Cn1c-2c(C2CCCCC2)c2ccc(C(=O)NS(=O)(=O)N(C)C)cc21 (racemic) [Example 4, rac-(3aR,14bS)-10-Cyclohexyl-N-((dimethylamino)sulfonyl)-3a-((3-methyl-3,8-diazabicyclo[3.2.1]oct-8-yl)carbonyl)-13-(methyloxy)-2-oxo-3a,14b-dihydro-4H-[1,3]dioxolo[4,5-d]indolo[2,1-a][2]benzazepine-7-carboxamid] | – | – | 100 nM | 91 nM |
| COc1ccc2c(c1)[C@@H]1OC(C)(C)O[C@]1(C(=O)N1C3CCC1CN(C)C3)Cn1c-2c(C2CCCCC2)c2ccc(C(=O)NS(=O)(=O)N(C)C)cc21 (racemic) [Example 5, rac-(3aR,4bS)-10-Cyclohexyl-N-((dimethylamino)sulfonyl)-2,2-dimethyl-3a-((3-methyl-3,8-diazabicyclo[3.2.1]oct-8-yl)carbonyl)-13-(methyloxy)-3a,14b-dihydro-4H-[1,3]dioxolo[4,5-d]indolo[2,1-a][2]benzazepine-7-carboxamid] | – | – | 140 nM | 590 nM |
| COc1ccc2c(c1)[C@@H]1OCO[C@]1(C(=O)N1C3CCC1CN(C)C3)Cn1c-2c(C2CCCCC2)c2ccc(C(=O)NS(=O)(=O)N(C)C)cc21 (racemic) [Example 6, rac-(3aR,14bS)-10-Cyclohexyl-N-((dimethylamino)sulfonyl)-3a-((3-methyl-3,8-diazabicyclo[3.2.1]oct-8-yl)carbonyl)-13-(methyloxy)-3a,14b-dihydro-4H-[1,3]dioxolo[4,5-d]indolo[2,1-a][2]benzazepine-7-carboxamid] | – | – | 140 nM | 430 nM |
